Where two headings read alike, the source gives them in different places.
Experiments:
[1] = Population pharmacokinetic (PopPK) model of ilaprazole, intravenous infusion, pooled data of 4 phase I and 1 phase IIa trials; format: in vivo, human; design: Disease status effect on Vp (Disease status = 1): scale not given here; key to ω^2 Vp, inter-individual variability / ω^2 CL, inter-individual variability: variance ω^2 of log-normal (exponential) inter-individual random effect η
Description: Data used to construct the PopPK model in current study were collected from 5 clinical trials of ilaprazole injection, including 4 phase I (No. CTR20132848, No. CTR20140147, No. CTR20150686, No. CTR20150685) clinical trials in healthy subjects, and 1 phase IIa (No. CTR20132846) clinical trial in patients with duodenal ulcer ([Wang et al., 2016a]; [Wang et al., 2016b]; [Wang et al., 2019]). All above studies included in this analysis were reviewed and approved by the Institutional Ethics Committee, registered in the China Clinical Trials Registry Center (chinadrugtrials.org.cn), and conducted in strict adherence to Good Clinical Practice and the Declaration of Helsinki.
The single-dose phase I study (No. CTR20132848) was a randomized, open, four-cycle crossover trial in which 16 healthy subjects were randomized into four groups and were given either oral control drug or intravenous infusion of 5, 10 or 20 mg of ilaprazole during different cycles, after a 1-week washout period, and then separately after crossover. In the multiple-dose phase I study (No. CTR20140147), 10 healthy subjects received a 5-day continuous intravenous infusion of 10 mg ilaprazole once daily. The next studies (No. CTR20150686, No. CTR20150685) were conducted in healthy subjects with a single 30 mg intravenous infusion of ilaprazole, and a 20 mg loading dose combined with a 10 mg maintenance dose for a total of 3 days of intravenous infusion of ilaprazole. In the phase IIa study (No. CTR20132846), 20 patients with duodenal ulcer were randomized to receive a 20 mg loading dose plus a 10 mg maintenance dose of intravenous infusion of ilaprazole once daily or a positive control drug.
Blood samples were collected for clinical pharmacokinetic analysis of ilaprazole in all studies, and the specific sampling designs are summarized in Table 1. To determine the concentration of ilaprazole in human plasma, a validated UPLC-MS/MS method was utilized, with the samples being processed by protein precipitation ([Wang et al., 2012]). The analytes were chromatographed on Acquity UPLC BEH C18 column (waters, MA, United States), and the detection was performed on Xevo-TQS tandem mass spectrometer coupled with an electro-spray ionization (ESI) source (waters, MA, United States). It is notable that ilaprazole concentration remained linear in the range of 1–1,000 ng/mL, with the lower limit of quantification of 1 ng/mL. After excluding 5 concentrations below the limit of quantification (BLQ) and 7 concentrations not detected (ND), a total of 1,560 plasma concentration from 58 subjects who received intravenous infusion of ilaprazole were included in the final PopPK analysis.
Based on the pooled data from the clinical studies mentioned above, the PopPK model for ilaprazole was constructed using non-linear mixed-effects model of Phoenix NLME (version 8.3; Certara Inc, Princeton, NJ, United States). We developed the PopPK model using the first-order conditional estimation extended least squares (FOCE-ELS) method. The specific modeling steps are as follows.
For the basic structural model, one-compartment and two-compartment models were tested to fit the data set according to the plasma concentration-time profile of ilaprazole, plotted on a semi-logarithmic scale. Based on the fact that the distribution of the population pharmacokinetic (PK) parameters essentially conforms to a log-normal distribution, the inter-individual variability in pharmacokinetic parameters was estimated by an exponential model (Eq. 1). Pik=Ppoppk*exp ηik (1)
In Eq. 1, Pik represents the kth pharmacokinetic parameter for the ith individual, Ppopk represents the typical value of the parameter in population, and ηik depicts the deviation between the kth pharmacokinetic parameter of the ith individual and the typical value of the population (i.e., random effect), It is assumed that η follows a normal distribution centered at 0 with variance ω^2. […]

[2] = design: method as in Sachs et al., 2006; Shin et al., 2014; conditions: ref Sachs et al., 2006; Shin et al., 2014; cited from earlier work
[3] = design: method as in Wang et al., 2019; conditions: ref Wang et al., 2019, cited from earlier work
[4] = cited from earlier work
[5] = cited from earlier work; remark: listed apart in the source
[6] = design: method as in Shen et al., 2020; Jiang et al., 2021; conditions: rats; intravenous injection of 14C-ilaprazole; ref Shen et al., 2020; Jiang et al., 2021; cited from earlier work

For `COc1ccnc(C[S+]([O-])c2nc3cc(-n4cccc4)ccc3[nH]2)c1C` (centres unmarked) [ilaprazole, 2-[[(4-methoxy-3-methyl)-2-pyridinyl]methyl-sulfinyl]-5-(1H-pyrol-1-yl)-1H-benzimidazole], which “CL, clearance of central compartment” value ([1]; bootstrap median (n = 1,000)) is on record?
Its value is 3.394 L/h.

And the “V, volume of central compartment” value ([1]; bootstrap median (n = 1,000))?
The value was 6.819 L.

What about the “Vp, volume of peripheral compartment” value ([1]; bootstrap median (n = 1,000)) of the same molecule?
The value was 5.480 L.

What about the “WT effect on Vp” value ([1]; bootstrap median (n = 1,000)) of the same molecule?
The value was 1.573.

What about the “σmult, residual variability” value ([1]; bootstrap median (n = 1,000)) of the same molecule?
The value was 0.182.

And the “ω^2 CL, inter-individual variability” value ([1]; bootstrap median (n = 1,000))?
The value was 0.057.

And the “ω^2 V, inter-individual variability” value ([1]; bootstrap median (n = 1,000))?
The value was 0.013.

And the “ω^2 Vp, inter-individual variability” value ([1]; bootstrap median (n = 1,000))?
Its value is 0.033.

And the “Disease status effect on Vp (Disease status = 1)” value ([1]; bootstrap median (n = 1,000), duodenal ulcer)?
The value was 0.356.

What about the clearance ([1]; both sexes, human, plasma, intravenous, final model estimate, read-out: CL, clearance of central compartment, typical value (converted)) of the same molecule?
Its clearance is 56.6 mL/min.

What about the “ω^2 CL, inter-individual variability” value ([1]; final model estimate) of the same molecule?
Its value is 0.059.

And the “ω^2 V, inter-individual variability” value ([1]; final model estimate)?
The value was 0.013.

And the “ω^2 Vp, inter-individual variability” value ([1]; final model estimate)?
Its value is 0.032.

And the “Disease status effect on Vp (Disease status = 1)” value ([1]; final model estimate, Disease status = 1 for duodenal ulcer)?
The value was 0.356.

And the “V, volume of central compartment, typical value” ([1]; final model estimate, IV infusion, Chinese healthy subjects and duodenal ulcer patients)?
The value was 6.795 L.

And the “Vp, volume of peripheral compartment, typical value” ([1]; final model estimate, median weight 60.6 kg)?
Its value is 5.544 L.

What about the “σmult, residual variability” value ([1]; final model estimate, multiplicative residual error) of the same molecule?
The value was 0.184.

And the “WT effect on Vp” value ([1]; final model estimate, power exponent on Weight/60.6)?
The value was 1.545.

What about the “half-life (t1/2)” value [2] of the same molecule?
The value was 4.7 to 5.3 h.

And the “AUC0‐∞” value ([3]; duodenal ulcers patients)?
Its value is 4900 ng·h/mL.

And the Cmax ([3]; duodenal ulcers patients)?
Its Cmax is 1,540 ng/mL.

And the “AUC0‐∞” value ([3]; healthy subjects)?
The value was 7400 ng·h/mL.

What about the Cmax ([3]; healthy subjects) of the same molecule?
Its Cmax is 1871.3 ng/mL.

What about the LogP [4] of the same molecule?
Its LogP is 3.04.

And the “plasma protein binding capacity” value [5]?
Its value is “more than 97%”.

What about the “radioactive signal in tissues/organs” value [6] of the same molecule?
Its value is “can still be observed in the stomach after 24 h”.
